Measured values from patent publication US11224609B2, “Mithramycin derivatives having increased selectivity and anti-cancer activity” (University of Kentucky Research Foundation, priority 2017, dated 2022).
“Also recorded” adds a separate entry of the source.

Experiments:
EWS-FLI1 mRNA = assay: Relative mRNA expression (qRT-PCR) of EWS-FLI1 in TC-32 cells; type: cell-based; settings: 6 and 12 h treatments at GI50
Experimental: (§1) TC-32 cells were seeded in 6-well plates at a density of 300,000 cells/well. […] After 6 and 12 h treatments media was removed. Cells were washed with DPBS and 500 μL of 0.05% Trypsin with 0.53 mM EDTA (Corning, Corning, N.Y.) was added. After a 2-3 min incubation, cells detached from the plate and 1 mL of fresh RPMI media was immediately added. Cells were collected in 1.5 mL tubes on ice and centrifuged to a pellet at 1200× g for 5 min. Supernatant was removed and cell pellets were lysed with 600 μL of RLT lysis buffer (Qiagen, Hilden, Germany). Lysates were centrifuged through QIAshredder inserts for complete cell disruption (Qiagen, Hilden, Germany). RNeasy mini spin columns were used to isolate pure RNA (Qiagen, Hilden, Germany). RNA concentrations were measured using NanoDrop 2000 Spectrometer (Thermo Fisher Scientific, Waltham, Mass.) and a 100 ng/μL stock solution was prepared. RNA (1 μg) was used to prepare cDNA with a MultiScribe reverse transcriptase (Thermo Fisher Scientific, Waltham, Mass.). qRT-PCR reactions were conducted using Maxima SYBR green Taq DNA Polymerase (Thermo Fisher Scientific, Waltham, Mass.). EpMotion5070 (Eppendorf, Hamburg, Germany) robot was used to mix reactions in 384 well plates and thermocycling was completed on a QuantStudio 7 Flex (Thermo Fisher Scientific, Waltham, Mass.). […]

NR0B1 mRNA = assay: Relative mRNA expression (qRT-PCR) of NR0B1 in TC-32 cells; type: cell-based; settings: 6 and 12 h treatments at GI50
Experimental: as §1

[1] = test system: NR0B1 promoter (binding promoter of EWS-FLI1); assay: NR0B1 promoter luciferase reporter assay in stably transfected TC-32 cells; type: cell-based; settings: 12 h treatment
Description: Full-length NR0B1 promoter sequence was PCR amplified using Q5 high-fidelity DNA polymerase (New England Biolabs, Ipswich, Mass.) from genomic DNA of TC-32 cells and cloned into the pGLUC-Basic 2 vector (New England Biolabs, Ipswich, Mass.). XhoI and KpnI restriction sites were incorporated into the primers. After restriction enzyme (New England Biolabs, Ipswich, Mass.) digest and purification by gel electrophoresis, the target amplicon was ligated into the pGLUC-Basic 2 vector using T4 DNA ligase (Thermo Fisher Scientific, Waltham, Mass.). Chemically competent TOP10 E. coli cells were used to propagate vectors under ampicillin selection (100 μg/mL) (Thermo Fisher Scientific, Waltham, Mass.). The resulting vectors were extracted and purified using GeneJET plasmid prep kit (Thermo Fisher Scientific, Waltham, Mass.). […]
Selected TC-32 cells, expressing either NR0B1 or CMV luciferase reporter vectors, were seeded in clear 96-well plates at a density of 10,000 cells/well. […] Lysates (80 μL) were transferred to a white luminescence plate. Luciferase substrate, either coelenterazine or D-luciferin (50 μL of 1× solution), for NR0B1 or CMV vectors, respectively, was added in a Glomax 96 microplate luminometer (Promega, Madison, Wis.) and luminescence was immediately measured. […] Luminescence results were normalized to cell viability.

CMV promoter = CMV promoter luciferase reporter assay in stably transfected TC-32 cells (non-specific control); type: cell-based; settings: 12 h, treated up to 10 μM
Description: Full-length NR0B1 promoter sequence was PCR amplified using Q5 high-fidelity DNA polymerase (New England Biolabs, Ipswich, Mass.) from genomic DNA of TC-32 cells and cloned into the pGLUC-Basic 2 vector (New England Biolabs, Ipswich, Mass.). XhoI and KpnI restriction sites were incorporated into the primers. After restriction enzyme (New England Biolabs, Ipswich, Mass.) digest and purification by gel electrophoresis, the target amplicon was ligated into the pGLUC-Basic 2 vector using T4 DNA ligase (Thermo Fisher Scientific, Waltham, Mass.). Chemically competent TOP10 E. coli cells were used to propagate vectors under ampicillin selection (100 μg/mL) (Thermo Fisher Scientific, Waltham, Mass.). The resulting vectors were extracted and purified using GeneJET plasmid prep kit (Thermo Fisher Scientific, Waltham, Mass.). The purified vector was transfected into TC-32 cells using lipofectamine 3000 (Thermo Fisher Scientific, Waltham, Mass.) with subsequent G418 selection (1 mg/mL) (VWR, Radnor, Pa.). Separately, TC-32 cells were transfected with pCMV-Red Firefly Vector (Thermo Fisher Scientific, Waltham, Mass.) with subsequent puromycin selection (0.1 mg/mL) (Sigma, St. Louis, Mo.) as a control.
Selected TC-32 cells, expressing either NR0B1 or CMV luciferase reporter vectors, were seeded in clear 96-well plates at a density of 10,000 cells/well. […] After a 12 h treatment, media was removed and cells were washed 3 times with DPBS (Thermo Fisher Scientific, Waltham, Mass.). Cells were directly lysed on a plate shaker for 30 min at room temperature using 100 μL of passive membrane lysis solution. Lysates (80 μL) were transferred to a white luminescence plate. Luciferase substrate, either coelenterazine or D-luciferin (50 μL of 1× solution), for NR0B1 or CMV vectors, respectively, was added in a Glomax 96 microplate luminometer (Promega, Madison, Wis.) and luminescence was immediately measured. Delay before and after injections were set to the default of 0.4 s and a 10 s integration time was used. All reagents used in this assay were from the dual luciferase reporter assay system (Promega, Madison, Wis.). Concurrently, an additional 96 well plate was seeded and treated under the exact same conditions to determine cell viability using resazurin assay. Luminescence results were normalized to cell viability.

[2] = test system: VCaP prostate cancer cells (TMPRSS2-ERG); assay: 72 h GI50 assay in VCaP; settings: for GI50: read-out: VCaP Prostate Cancer TMPRSS2-ERG GI50, 72 h growth inhibition, VCaP cells; for Ratio of median GI50 Prostate cells lacking TMPRSS2-ERG:VCaP: selectivity for VCaP over other prostate cancer cell lines
[3] = test system: 5838 Ewing sarcoma cells (EWS-ERG); assay: 72 h GI50 assay in 5838; settings: for GI50: read-out: 5838 Ewing Sarcoma EWS-ERG GI50, 72 h growth inhibition, 5838 cells; for Ratio of median GI50 Non-Ewing sarcoma cell lines (cf Table 3):5838: selectivity for 5838 cells
[4] = test system: ES-8 Ewing sarcoma cells (EWS-FLI1 Type 2); assay: 72 h GI50 assay in ES-8; settings: read-out: ES-8 EWS-FLI1 Type 2 GI50; 72 h growth inhibition
[5] = test system: ES-7 Ewing sarcoma cells (EWS-FLI1 Type 4); assay: 72 h GI50 assay in ES-7; settings: read-out: ES-7 EWS-FLI1 Type 4 GI50; 72 h growth inhibition
A549 cells = assay: 72 h GI50 assay in A549; settings: read-out: A549 GI50; 72 h growth inhibition
[6] = test system: RD-ES Ewing sarcoma cells (EWS-FLI1 Type 2); assay: 72 h GI50 assay in RD-ES; settings: read-out: RD-ES EWS-FLI1 Type 2 GI50; 72 h growth inhibition
LNCaP cells = assay: 72 h GI50 assay in LNCaP; settings: read-out: LNCaP GI50; 72 h growth inhibition
DU 145 cells = assay: 72 h GI50 assay in DU 145; settings: read-out: DU 145 GI50; 72 h growth inhibition
PANC-1 cells = assay: 72 h GI50 assay in PANC-1; settings: read-out: PANC-1 GI50; 72 h growth inhibition
[7] = test system: PC-3 (prostate cancer, no ETS translocation) cell line; assay: 72 h growth inhibition (GI50) assay in PC-3; settings: read-out: PC-3 Prostate cancer No ETS Translocation GI50; 72 h growth inhibition, PC-3 cells

Structure (SMILES) | EWS-FLI1 mRNA expression (EWS-FLI1 mRNA) | NR0B1 mRNA expression (NR0B1 mRNA) | NR0B1 promoter driven luciferase signal [1] | CMV promoter driven luciferase signal (CMV promoter) | CMV promoter driven luciferase signal (CMV promoter; listed as MTMSA-Phe-Trp (60)) | GI50 [2] [µM] | Ratio of median GI50 Prostate cells lacking TMPRSS2-ERG:VCaP [2] | GI50 [3] [µM] | Ratio of median GI50 Non-Ewing sarcoma cell lines (cf Table 3):5838 [3] | GI50 [4] [µM] | GI50 [5] [µM] | GI50 (A549 cells) [µM] | GI50 [6] [µM] | GI50 (LNCaP cells) [µM] | GI50 (DU 145 cells) [µM] | GI50 (PANC-1 cells) [µM] | GI50 [7] [µM] | CMV promoter driven luciferase signal (CMV promoter; listed as MTMSA-Trp-Trp (61))
COC(=O)C(Cc1c[nH]c2ccccc12)NC(=O)C(Cc1ccccc1)NC(=O)C(OC)C1Cc2cc3cc(OC4CC(OC5CC(O)C(O)C(C)O5)C(O)C(C)O4)c(C)c(O)c3c(O)c2C(=O)C1OC1CC(OC2CC(OC3CC(C)(O)C(O)C(C)O3)C(O)C(C)O2)C(O)C(C)O1 (stereo not shown) [Analogue 60, MTMSA-Phe-Trp] | decreased | decreased | decreased | no effect at all; also recorded: did not decrease | Lack of effect | 0.039 | 25.4 | 0.149 | 6.7 | 0.053 | 0.046 | 2.85 | 0.05 | 1.61 | 0.4 | 0.574 | 1.13 | 
COC(=O)C(Cc1c[nH]c2ccccc12)NC(=O)C(Cc1c[nH]c2ccccc12)NC(=O)C(OC)C1Cc2cc3cc(OC4CC(OC5CC(O)C(O)C(C)O5)C(O)C(C)O4)c(C)c(O)c3c(O)c2C(=O)C1OC1CC(OC2CC(OC3CC(C)(O)C(O)C(C)O3)C(O)C(C)O2)C(O)C(C)O1 (stereo not shown) [Analogue 61, MTMSA-Trp-Trp] | decreased | decreased | decreased | no effect at all; also recorded: did not decrease |  | 0.031 | 18.3 | 0.053 | 16.2 | 0.114 | 0.048 | 1.4 | 0.057 | 0.856 | 0.246 | 0.64 | 0.568 | Lack of effect
